Organism: Rattus norvegicus
Assay: Open TG-GATES - Regimen: Daily Repeat
Assay type: toxicity, organism-based, Sprague-Dawley
Set-up: regimen Daily Repeat, gender Male, age 6 weeks
Settings: in vivo, po, route gavage; for ALP / ALT / AST / BUN / CRE / Ca / Cl / DBIL / GLC / IP / K / LDH / Na / PL / RALB / TBIL / TC / TG / TP / gamma-GTP / A/G: tissue Plasma; for APTT / Bas / Eos / Fbg / Hb / Ht / Lym / MCH / MCHC / MCV / Mono / Neu / PT / Plat / RBC / Ret / WBC: tissue Blood; for KIDNEY_L / KIDNEY_R / KIDNEY_TOTAL: tissue Kidney; for LIVER: tissue Liver
[1] = 3 mg/kg, […], dose level Low, time 14 day
[2] = 3 mg/kg, […], dose level Low, time 28 day
[3] = 10 mg/kg, 72 h, dose level Middle, time 3 day
[4] = 10 mg/kg, […], dose level Middle, time 7 day
[5] = 10 mg/kg, […], dose level Middle, time 14 day
[6] = 10 mg/kg, […], dose level Middle, time 28 day
[7] = 30 mg/kg, 72 h, dose level High, time 3 day
[8] = 30 mg/kg, […], dose level High, time 7 day
[9] = 30 mg/kg, […], dose level High, time 14 day

C[C@H]1C(=O)O[C@@H]2CCN3CC=C(COC(=O)[C@](C)(O)[C@]1(C)O)[C@H]23 [MONOCROTALINE]
ALP [1]: 1435.6 IU/L | ALT [1]: 41.4 IU/L | AST [1]: 76.6 IU/L | BUN [1]: 16.4 mg/dL | CRE [1]: 0.2 mg/dL | Ca [1]: 11 mg/dL | Cl [1]: 106.4 meq/L | DBIL [1]: 0 mg/dL | GLC [1]: 185.4 mg/dL | IP [1]: 6.2 mg/dL | K [1]: 4 meq/L | LDH [1]: 269.8 IU/L | Na [1]: 142.4 meq/L | PL [1]: 161.6 mg/dL | RALB [1]: 3 g/dL | TBIL [1]: 0 mg/dL | TC [1]: 92.2 mg/dL | TG [1]: 97 mg/dL | TP [1]: 5.9 g/dL | gamma-GTP [1]: 2.2 IU/L | A/G [2]: 1.1 | ALP [2]: 1124.2 IU/L | ALT [2]: 41.8 IU/L | AST [2]: 87.4 IU/L | BUN [2]: 19 mg/dL | CRE [2]: 0.2 mg/dL | Ca [2]: 10.7 mg/dL | Cl [2]: 108.4 meq/L | DBIL [2]: 0 mg/dL | GLC [2]: 182.2 mg/dL | IP [2]: 6 mg/dL | K [2]: 4.3 meq/L | LDH [2]: 290.2 IU/L | Na [2]: 143.2 meq/L | PL [2]: 158.8 mg/dL | RALB [2]: 3.2 g/dL | TBIL [2]: 0.034 mg/dL | TC [2]: 81.2 mg/dL | TG [2]: 128.2 mg/dL | TP [2]: 6.1 g/dL | gamma-GTP [2]: 1.2 IU/L | TERMINAL_BW [3]: 231.2 g | APTT [3]: 19.4 s | Bas [3]: 0% | Eos [3]: 0.8% | Fbg [3]: 324.6 mg/dL | Hb [3]: 13.8 g/dL | Ht [3]: 40.1% | Lym [3]: 78.2% | MCH [3]: 21.5 pg | MCHC [3]: 34.5% | MCV [3]: 62.2 fL | Mono [3]: 2.8% | Neu [3]: 17.6% | PT [3]: 15.9 s | Plat [3]: 126.9 x10_4/uL | RBC [3]: 646.6 x10_4/ul | Ret [3]: 6% | WBC [3]: 73.2 x10_2/uL | KIDNEY_L [3]: 1 g | KIDNEY_R [3]: 1 g | KIDNEY_TOTAL [3]: 2 g | LIVER [3]: 10.7 g | A/G [3]: 1.3 | ALP [3]: 1897.2 IU/L | ALT [3]: 40.8 IU/L | AST [3]: 73.6 IU/L | BUN [3]: 16.2 mg/dL | CRE [3]: 0.2 mg/dL | Ca [3]: 10.9 mg/dL | Cl [3]: 106.4 meq/L | DBIL [3]: 0.002 mg/dL | GLC [3]: 184.4 mg/dL | IP [3]: 7.2 mg/dL | K [3]: 4.6 meq/L | LDH [3]: 283 IU/L | Na [3]: 142 meq/L | PL [3]: 167.2 mg/dL | RALB [3]: 3.1 g/dL | TBIL [3]: 0.01 mg/dL | TC [3]: 90.4 mg/dL | TG [3]: 113.6 mg/dL | TP [3]: 5.5 g/dL | gamma-GTP [3]: 1 IU/L | TERMINAL_BW [4]: 249.4 g | TERMINAL_BW [5]: 274.8 g | TERMINAL_BW [6]: 321 g | APTT [4]: 21.5 s | Bas [4]: 0% | Eos [4]: 1% | Fbg [4]: 391.6 mg/dL | Hb [4]: 13.9 g/dL | Ht [4]: 39.4% | Lym [4]: 78.8% | MCH [4]: 20.7 pg | MCHC [4]: 35.1% | MCV [4]: 58.8 fL | Mono [4]: 4.2% | Neu [4]: 14.8% | PT [4]: 16.4 s | Plat [4]: 134.7 x10_4/uL | RBC [4]: 670.6 x10_4/ul | Ret [4]: 4.5% | WBC [4]: 135.7 x10_2/uL | APTT [5]: 21.2 s | Bas [5]: 0% | Eos [5]: 0.2% | Fbg [5]: 480 mg/dL | Hb [5]: 14.4 g/dL | Ht [5]: 41.1% | Lym [5]: 84.2% | MCH [5]: 20.5 pg | MCHC [5]: 35.2% | MCV [5]: 58.2 fL | Mono [5]: 4.8% | Neu [5]: 9.6% | PT [5]: 16.4 s | Plat [5]: 136.8 x10_4/uL | RBC [5]: 705.4 x10_4/ul | Ret [5]: 2.9% | WBC [5]: 250.8 x10_2/uL | APTT [6]: 26.9 s | Bas [6]: 0% | Eos [6]: 1% | Fbg [6]: 293.8 mg/dL | Hb [6]: 15.3 g/dL | Ht [6]: 43.1% | Lym [6]: 76.4% | MCH [6]: 18.8 pg | MCHC [6]: 35.6% | MCV [6]: 52.7 fL | Mono [6]: 4.6% | Neu [6]: 17% | PT [6]: 16.1 s | Plat [6]: 84.1 x10_4/uL | RBC [6]: 818 x10_4/ul | Ret [6]: 4.5% | WBC [6]: 308 x10_2/uL | KIDNEY_L [4]: 1.1 g | KIDNEY_R [4]: 1.1 g | KIDNEY_TOTAL [4]: 2.2 g | KIDNEY_L [5]: 1.1 g | KIDNEY_R [5]: 1.2 g | KIDNEY_TOTAL [5]: 2.3 g | KIDNEY_L [6]: 1.3 g | KIDNEY_R [6]: 1.3 g | KIDNEY_TOTAL [6]: 2.6 g | LIVER [4]: 11.6 g | LIVER [5]: 13.3 g | LIVER [6]: 15 g | A/G [4]: 1.1 | ALP [4]: 1684.4 IU/L | ALT [4]: 46.6 IU/L | AST [4]: 87.8 IU/L | BUN [4]: 15.4 mg/dL | CRE [4]: 0.1 mg/dL | Ca [4]: 11 mg/dL | Cl [4]: 107.4 meq/L | DBIL [4]: 0.002 mg/dL | GLC [4]: 181.2 mg/dL | IP [4]: 6.6 mg/dL | K [4]: 4.3 meq/L | LDH [4]: 236 IU/L | Na [4]: 142 meq/L | PL [4]: 149 mg/dL | RALB [4]: 3 g/dL | TBIL [4]: 0.006 mg/dL | TC [4]: 82 mg/dL | TG [4]: 111 mg/dL | TP [4]: 5.7 g/dL | gamma-GTP [4]: 1.8 IU/L | A/G [5]: 0.8 | ALP [5]: 2092 IU/L | ALT [5]: 88.8 IU/L | AST [5]: 174.4 IU/L | BUN [5]: 17.2 mg/dL | CRE [5]: 0.3 mg/dL | Ca [5]: 11.2 mg/dL | Cl [5]: 106.6 meq/L | DBIL [5]: 0.006 mg/dL | GLC [5]: 171 mg/dL | IP [5]: 5.9 mg/dL | K [5]: 4.8 meq/L | LDH [5]: 454.8 IU/L | Na [5]: 141 meq/L | PL [5]: 139 mg/dL | RALB [5]: 2.6 g/dL | TBIL [5]: 0.008 mg/dL | TC [5]: 71.6 mg/dL | TG [5]: 103.2 mg/dL | TP [5]: 5.8 g/dL | gamma-GTP [5]: 2.4 IU/L | A/G [6]: 0.9 | ALP [6]: 1353.2 IU/L | ALT [6]: 82.8 IU/L | AST [6]: 155 IU/L | BUN [6]: 17.4 mg/dL | CRE [6]: 0.2 mg/dL | Ca [6]: 11 mg/dL | Cl [6]: 107.8 meq/L | DBIL [6]: 0.078 mg/dL | GLC [6]: 167.6 mg/dL | IP [6]: 6 mg/dL | K [6]: 4.5 meq/L | LDH [6]: 382.8 IU/L | Na [6]: 141.4 meq/L | PL [6]: 140 mg/dL | RALB [6]: 2.9 g/dL | TBIL [6]: 0.1 mg/dL | TC [6]: 79.6 mg/dL | TG [6]: 47.2 mg/dL | TP [6]: 6 g/dL | gamma-GTP [6]: 1.6 IU/L | TERMINAL_BW [7]: 232.9 g | APTT [7]: 17.3 s | Bas [7]: 0% | Eos [7]: 0.8% | Fbg [7]: 350.2 mg/dL | Hb [7]: 13.8 g/dL | Ht [7]: 39.9% | Lym [7]: 73.6% | MCH [7]: 21.4 pg | MCHC [7]: 34.5% | MCV [7]: 62.1 fL | Mono [7]: 4.4% | Neu [7]: 19.8% | PT [7]: 16.2 s | Plat [7]: 124.3 x10_4/uL | RBC [7]: 643.2 x10_4/ul | Ret [7]: 4.8% | WBC [7]: 80.8 x10_2/uL | KIDNEY_L [7]: 1 g | KIDNEY_R [7]: 1 g | KIDNEY_TOTAL [7]: 2.1 g | LIVER [7]: 12.5 g | A/G [7]: 1.3 | ALP [7]: 1831.6 IU/L | ALT [7]: 47.2 IU/L | AST [7]: 112.4 IU/L | BUN [7]: 13.6 mg/dL | CRE [7]: 0.1 mg/dL | Ca [7]: 11.1 mg/dL | Cl [7]: 106.4 meq/L | DBIL [7]: 0.01 mg/dL | GLC [7]: 180.2 mg/dL | IP [7]: 7 mg/dL | K [7]: 4.5 meq/L | LDH [7]: 398 IU/L | Na [7]: 141.2 meq/L | PL [7]: 161.4 mg/dL | RALB [7]: 3.2 g/dL | TBIL [7]: 0.028 mg/dL | TC [7]: 88.4 mg/dL | TG [7]: 100 mg/dL | TP [7]: 5.7 g/dL | gamma-GTP [7]: 1.2 IU/L | TERMINAL_BW [8]: 230.5 g | APTT [8]: 24.3 s | Bas [8]: 0% | Eos [8]: 0.4% | Fbg [8]: 451.4 mg/dL | Hb [8]: 14.1 g/dL | Ht [8]: 40.7% | Lym [8]: 71.6% | MCH [8]: 20.2 pg | MCHC [8]: 34.6% | MCV [8]: 58.3 fL | Mono [8]: 4.8% | Neu [8]: 18.6% | PT [8]: 17.5 s | Plat [8]: 44 x10_4/uL | RBC [8]: 697.8 x10_4/ul | Ret [8]: 2.9% | WBC [8]: 122 x10_2/uL | Mono [9]: 7% | KIDNEY_L [8]: 1.1 g | KIDNEY_R [8]: 1.1 g | KIDNEY_TOTAL [8]: 2.2 g | LIVER [8]: 11.3 g | A/G [8]: 1 | ALP [8]: 1889.2 IU/L | ALT [8]: 273.2 IU/L | AST [8]: 504.2 IU/L | BUN [8]: 13 mg/dL | CRE [8]: 0.2 mg/dL | Ca [8]: 10.8 mg/dL | Cl [8]: 106 meq/L | DBIL [8]: 0.2 mg/dL | GLC [8]: 156 mg/dL | IP [8]: 6.9 mg/dL | K [8]: 4.4 meq/L | LDH [8]: 749.6 IU/L | Na [8]: 141 meq/L | PL [8]: 139.8 mg/dL | RALB [8]: 2.6 g/dL | TBIL [8]: 0.3 mg/dL | TC [8]: 86.4 mg/dL | TG [8]: 38.8 mg/dL | TP [8]: 5.3 g/dL | gamma-GTP [8]: 2.2 IU/L | BUN [9]: 13.5 mg/dL | CRE [9]: 0.2 mg/dL | TP [9]: 4.9 g/dL

From ChEMBL document CHEMBL3885861, “Open TG-GATES”
